According to patent publication US11479559B2, “Urea-substituted aromatic ring-linked dioxinoquinoline compounds, preparation method and uses thereof” (BEIJING SCITECH-MQ PHARMACEUTICALS LIMITED, priority 2018, dated 2022):
Like-named read-outs stand apart in the source and are kept apart here.

Biological target: RET tyrosine kinase (Homo sapiens (Human), UniProt P07949)
Test: Assay of small molecular compounds for inhibiting the activity of RET kinase (LANCE TR-FRET)
Procedure: The assay is based on the LANCE TR-FRET technology of Perkin Elmer Inc., and the assay method is as follows:
2.5 μL of the gradient-diluted compounds were taken with a transfer pipette to a 384-well plate.
Addition of enzyme: 5 μL of 2× RET kinase solution (concentration was 0.8 nM) was taken with a transfer pipette to the corresponding reaction well of the 384-well plate, mixed well and pre-reacted at room temperature for 30 minutes.
2.5 μL 4× Ultra ULight™-JAK-1 (Tyr1023) Peptide (concentration was 200 nM)/ATP (concentration was 40 μM) mixture was taken with a transfer pipette to the corresponding reaction well of the 384-well plate.
The final concentration of DMSO in the reaction system was 4%.
The mixture was mixed well and then centrifuged and reacted at room temperature in dark for 60 min.
The 384-well plate was placed into the Envision plate reader and the signal was detected using the appropriate program.

RET tyrosine kinase, sequence (P07949 29-1114): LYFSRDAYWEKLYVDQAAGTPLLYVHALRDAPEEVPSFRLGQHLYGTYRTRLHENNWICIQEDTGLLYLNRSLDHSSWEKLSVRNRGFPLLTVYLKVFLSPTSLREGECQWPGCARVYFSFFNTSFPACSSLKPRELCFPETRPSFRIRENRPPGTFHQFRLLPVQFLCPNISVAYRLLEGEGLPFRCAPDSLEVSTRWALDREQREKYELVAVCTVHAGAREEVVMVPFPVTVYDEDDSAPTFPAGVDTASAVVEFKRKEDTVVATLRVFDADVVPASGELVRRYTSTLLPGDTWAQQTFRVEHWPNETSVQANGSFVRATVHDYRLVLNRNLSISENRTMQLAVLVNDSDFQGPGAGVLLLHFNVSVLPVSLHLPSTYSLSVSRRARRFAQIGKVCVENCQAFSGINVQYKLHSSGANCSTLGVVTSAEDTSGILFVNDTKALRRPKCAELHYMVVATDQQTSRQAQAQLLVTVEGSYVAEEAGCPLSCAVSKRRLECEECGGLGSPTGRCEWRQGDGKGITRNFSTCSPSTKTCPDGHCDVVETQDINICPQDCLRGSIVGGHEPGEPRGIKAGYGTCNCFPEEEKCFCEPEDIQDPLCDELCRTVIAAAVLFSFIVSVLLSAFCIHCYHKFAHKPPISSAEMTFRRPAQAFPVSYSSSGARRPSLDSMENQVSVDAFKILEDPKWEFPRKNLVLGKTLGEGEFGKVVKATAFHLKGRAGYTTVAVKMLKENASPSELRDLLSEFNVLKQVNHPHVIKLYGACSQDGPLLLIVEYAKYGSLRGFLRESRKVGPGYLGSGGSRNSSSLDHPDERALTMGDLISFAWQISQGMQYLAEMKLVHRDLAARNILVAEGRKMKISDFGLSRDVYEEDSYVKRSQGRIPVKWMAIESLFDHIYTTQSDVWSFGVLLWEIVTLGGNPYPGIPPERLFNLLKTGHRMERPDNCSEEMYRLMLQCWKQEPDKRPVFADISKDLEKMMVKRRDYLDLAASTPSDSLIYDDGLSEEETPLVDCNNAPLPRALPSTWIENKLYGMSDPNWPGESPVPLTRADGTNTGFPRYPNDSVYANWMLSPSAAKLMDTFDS

IC50	IC50 (read-out: RET IC50)	SMILES
0.05 to 0.5 µM		COc1cc2nccc(Oc3ccc(NC(=O)NCC(C)C)c(Cl)c3)c2c2c1OCCO2 [Example 83, 1-(2-chloro-4-((5-methoxy-2,3-dihydro-[1,4]dioxino[2,3-f]quinolin-10-yl)oxy)phenyl)-3-isobutylurea]
	< 0.05 µM	COCCOc1cc2nccc(Oc3ccc(NC(=O)Nc4ccc(Cl)c(C(F)(F)F)c4)cc3F)c2c2c1OCCO2 [Example 36, 1-(4-chloro-3-(trifluoromethyl)phenyl)-3-(3-fluoro-4-((5-(2-methoxyethoxy)-2,3-dihydro-[1,4]dioxino[2,3-f]quinolin-10-yl)oxy)phenyl)urea]
	< 0.05 µM	CC(=O)N1CCN(CCCOc2cc3nccc(Oc4ccc(NC(=O)Nc5ccc(Cl)c(C(F)(F)F)c5)cc4)c3c3c2OCCO3)CC1 [Example 22, 1-(4-((5-(3-(4-acetylpiperazin-1-yl)propoxy)-2,3-dihydro-[1,4]dioxino[2,3-f]quinolin-10-yl)oxy)phenyl)-3-(4-chloro-3-(trifluoromethyl)phenyl)urea]
0.05 to 0.5 µM		O=C(Nc1ccc(Oc2ccnc3cc(OC4CCOCC4)c4c(c23)OCCO4)cc1)Nc1ccc(Cl)c(C(F)(F)F)c1 [Example 33, 1-(4-chloro-3-(trifluoromethyl)phenyl)-3-(4-((5-((tetrahydro-2H-pyran-4-yl)oxy)-2,3-dihydro-[1,4]dioxino[2,3-f]quinolin-10-yl)oxy)phenyl)urea]
	< 0.05 µM	CCOc1cc2nccc(Oc3ccc(NC(=O)Nc4ccc(Cl)c(C(F)(F)F)c4)c(F)c3)c2c2c1OCCO2 [Example 35, 1-(4-chloro-3-(trifluoromethyl)phenyl)-3-(4-((5-ethoxy-2,3-dihydro-[1,4]dioxino[2,3-f]quinolin-10-yl)oxy)-2-fluorophenyl)urea]
0.05 to 0.5 µM		O=C(Nc1ccc(Oc2ccnc3cc(OC4CCOC4)c4c(c23)OCCO4)cc1)Nc1ccc(Cl)c(C(F)(F)F)c1 (stereo not drawn) [Example 32, 1-(4-chloro-3-(trifluoromethyl)phenyl)-3-(4-((5-((tetrahydrofuran-3-yl)oxy)-2,3-dihydro-[1,4]dioxino[2,3-f]quinolin-10-yl)oxy)phenyl)urea]
	< 0.05 µM	O=C(Nc1ccc(Cl)c(C(F)(F)F)c1)Nc1ccc(Oc2ccnc3cc(OCCCN4CCOCC4)c4c(c23)OCCO4)cc1F [Example 42, 1-(4-chloro-3-(trifluoromethyl)phenyl)-3-(2-fluoro-4-((5-(3-morpholinopropoxy)-2,3-dihydro-[1,4]dioxino[2,3-f]quinolin-10-yl)oxy)phenyl)urea]
< 0.05 µM		COCCOc1cc2nccc(Oc3ccc(NC(=O)NC4CCCC4)c(Cl)c3)c2c2c1OCCO2 [Example 71, 1-(2-chloro-4-((5-(2-methoxyethoxy)-2,3-dihydro-[1,4]dioxino[2,3-f]quinolin-10-yl)oxy)phenyl)-3-cyclopentylurea]
	< 0.05 µM	COc1cc2nccc(Oc3ccc(NC(=O)NC4CCC4)c(Cl)c3)c2c2c1OCCO2 [Example 68, 1-(2-chloro-4-((5-methoxy-2,3-dihydro-[1,4]dioxino[2,3-f]quinolin-10-yl)oxy)phenyl)-3-cyclobutylurea]
	< 0.05 µM	COCCOc1cc2nccc(Oc3ccc(NC(=O)Nc4ccc(Cl)c(C(F)(F)F)c4)cc3)c2c2c1OCCO2 [Example 8, 1-(4-chloro-3-(trifluoromethyl)phenyl)-3-(4-((5-(2-methoxyethoxy)-2,3-dihydro-[1,4]dioxino[2,3-f]quinolin-10-yl)oxy)phenyl)urea]
	< 0.05 µM	O=C(Nc1ccc(Oc2ccnc3cc(OCCCN4CCOCC4)c4c(c23)OCCO4)cc1)Nc1cc(C(F)(F)F)ccc1F [Example 76, 1-(2-fluoro-5-(trifluoromethyl)phenyl)-3-(4-((5-(3-morpholinopropoxy)-2,3-dihydro-[1,4]dioxino[2,3-f]quinolin-10-yl)oxy)phenyl)urea]

SMILES	IC50	IC50 (read-out: RET IC50)
CC(C)COc1cc2nccc(Oc3ccc(NC(=O)NC4CC4)c(Cl)c3)c2c2c1OCCO2 [Example 45, 1-(2-chloro-4-((5-isobutoxy-2,3-dihydro-[1,4]dioxino[2,3-f]quinolin-10-yl)oxy)phenyl)-3-cyclopropylurea]		< 0.05 µM
